Read-outs that look alike come from different tables or passages of the source.

The conditions of data set [1]: cited from earlier work; for time to achieve peak plasma concentration (tmax): different doses; for half-life / systemic bioavailability: humans.
Data set [2] in a line: Randomized, double blind, parallel bioavailability study (plasma CBD, THC and metabolites by LCMS). To be noted: human, oral. Here is the method: Dosage was standardized to 10 mg of THC. […] Secondary outcome was a subjective evaluation of drug effects assessed using modified Drug Effects Questionnaire (DEQ-5) for the control product and the experimental product. Relevant experimental descriptions of several study aspects are detailed below.
Administration: A pre-dose plasma (via IV catheter) and a urine sample is collected from the participant before the administration of the emulsions/formulations. […] The bowl in which the product is mixed is rinsed with 100 ml water and the participant consumes the complete amount. After the product mixture is consumed, the participant is provided with an 8 oz glass of water that is then consumed in its entirety within 1-2 minutes.
The samples are also analyzed for HbAlc, CBC, electrolytes (Na, K, Cl, Ca), creatinine, estimated glomerular filtration rate (eGFR), aspartate aminotransferase (AST), alanine aminotransferase (ALT), and bilirubin. Urine samples are also obtained at the following time ranges: 1-4 hrs, 4-8 hrs and 8-12 hrs.
Plasma and urine samples are collected at KGK Science.

On to `C=C(C)[C@@H]1CCC(C)=C[C@H]1c1c(O)cc(CCCCC)cc1O` [CBD, (−)-Cannabidiol (CBD)], for which the “time to achieve peak plasma concentration (tmax)” value in data set [1] is 1.5 to 4 h. Besides, the half-life (in general, how long it takes for the measured level to halve) in data set [1] (intravenous injection) was 18 to 33 h; in data set [1] (oral administration), 48 to 120 h; in data set [1] (smoking), 27 to 35 h. For the same compound, the Tmax – broadly, the time from dosing to the highest level – in data set [2] fell in the range of 0.167 to 1.42 h.

Regarding `CCCCCc1cc(O)c2c(c1)OC(C)(C)[C@@H]1CCC(C)=C[C@@H]21` [Δ^9-THC, Δ^9-Tetrahydrocannabinol (Δ^9-THC)], the “time to achieve peak plasma concentration (tmax)” value in data set [1] was 1 to 2 h. Besides, the systemic bioavailability in data set [1] (oral) is reported as 4-12%; in data set [1] (smoked), 10-27%. In addition, the “maximal plasma concentrations observed as late as” value in data set [1] (orally taken, in some cases) is at most 6 h. Further, in data set [2], the Tmax lay within 0.167 to 1.5 h.

The values are drawn from US20200138772A1, “STABILIZED FORMULATIONS OF CANNABINOID COMPOSITIONS” (priority 2018, published 2020).
